“Also recorded” adds a separate entry of the source.
B1: C/EBPβ: CCAATT enhancer binding protein β, a transcription factor, supplied by pMEX C/EBPβ expression vector (protein, listed as Homo sapiens)
chain: APAPAPASSGQHHDFLSDLFSDDYGGKNCKKPAEYGYVSLGRLGAAKGAHPPPPPPPPPAELKAEPGFEPADCKRKEEAGAPGGGAGMAAGFPYALRAGSSGSLSTSSSSSPPGTPSPADAKAPPTACYAGAGPAPSQVKSKAKKTVRRERNNIAVRKSRDKAKMRNLETQHKVLELTAENERLQKKVEQLSRELSPEPLLASSGHC

Legend:
C/EBPβ = assay: Northern analysis verifying C/EBPβ induction in kidney and osteoblastic cells; format: cell-based
24(OH)ase mRNA = assay: Time course of mRNA induction by Northern blot in UMR osteoblastic cells; format: cell-based; details: time course 0–24 h
C/EBPβ protein = assay: Western blot of C/EBPβ protein in primary murine osteoblasts; format: cell-based
Description: Induction of C/EBPβ protein is examined by Western blot using nuclear extracts (antibody from Santa Cruz).

C/EBPβ mRNA = assay: Time course of mRNA induction by Northern blot in UMR osteoblastic cells; format: cell-based; details: time course 0–24 h
rat 24(OH)ase promoter = assay: 1,25(OH)2D3 induced 24(OH)ase promoter transcription with cotransfected C/EBPβ; details: COS cells cotransfected with hVDR and C/EBPβ, 1,25(OH)2D3 for 24 h
hVDR promoter = assay: PKA mediated hVDR promoter (-1500/+60) luciferase transcription with cotransfected C/EBPβ; format: cell-based, human; details: JEG cells, 2 μg VDR promoter, 1 μg PKA expression vector, 5 μg C/EBPβ
Method: FIG. 2 is an illustration of C/EBPβ enhancement of PKA mediated transcriptional activation of hVDR. 2 μg of the VDR promoter (−1500/+60) cotransfected in JEG cells with 1 μg of PKA expression vector in the presence or absence of 5 μg C/EBPβ.
cAMP or PTH induced enhancement of 24(OH)ase transcription is due at least in part to an upregulation of VDR. Since two putative C/EBPβ sites have been reported in the hVDR promoter (at −1490 and at −920; 143) the determination of the effect of C/EBPβ on VDR promoter activity is important. We have isolated the hVDR promoter fragment −1500/+60 by PCR and ligated it into the PGL-2 luciferase vector and found in our studies that C/EBPβ enhances PKA mediated transcription of the VDR (FIG. 2).

Molecule | induction of C/EBPβ by Northern analysis (C/EBPβ) | first significant induction of 24(OH)ase mRNA after treatment (24(OH)ase mRNA) [h] | induction of C/EBPβ protein by Western blot (C/EBPβ protein) | first significant induction of C/EBPβ mRNA after treatment (C/EBPβ mRNA) [h] | effect of C/EBPβ on 1,25(OH)2D3 induced 24(OH)ase transcription (rat 24(OH)ase promoter) | effect of C/EBPβ on PKA mediated transcription of the VDR (hVDR promoter)
C=C1/C(=C\C=C2/CCC[C@]3(C)[C@@H]([C@H](C)CCCC(C)(C)O)CC[C@@H]23)C[C@@H](O)C[C@@H]1O [1,25(OH)2D3, 1,25-dihydroxyvitamin D3] | induction | 9 | induction | 3 | – | –
B1 | – | – | – | – | markedly enhanced; also recorded: enhanced transcriptional response | enhances

— patent US7033996B2, “Method for the treatment of vitamin D related disease” (University of Medicine & Dentistry of New Jersey, priority 2001, dated 2006)
